Test results as given in patent US7579338B2, “Methods and compositions for treating atheroma, tumors and other neoplastic tissues” (Pharmacyclics, Inc., priority 1999, dated 2009).

Key:
[1] = Production of H2O2 in the presence of NADPH (Bioxytech H2O2-560 colorimetric); format: biochemical; settings: NADPH plus 0.05 molar equivalent texaphyrin, no catalase, over the course of 100 minutes
Experimental: • Stock NADPH (Sigma N 7505) (prepared fresh): 10.14 mg/(10 mL×833.4 mg/mmol)=1.217 mM • Stock LuTex: 5.02 mg/(10.0 mL water×1166 mg/mmol)=[…] • Stock 4× Buffer: 200 mM HEPES, pH 7.5; 400 mM NaCl These were combined to form the reaction mixture: 200 μL 4× Buffer, 200 μL NADPH Stock, 371.8 μL Water, 28.2 μL LuTex Stock. This was analyzed as indicated below. As a control, a solution in which the LuTex complex was not added was prepared as above, with suitable adjustment of the volume of water, and analyzed concurrently. In similar manner, a solution was prepared as above except that 2 μL catalase (Boeringer-Mannheim 106 836, now Roche Molecular Biochemicals, Indianapolis, Ind.) was added, and analyzed concurrently.
A reaction mixture was prepared containing NADPH, buffer, and water. Texaphyrin catalyst, eg., 0.05 molar equivalent, was added to this reaction mixture, vortexed briefly, and incubated at ambient temperature in the dark. […] The absorbance at 240 nm was used to standardize this solution, which was further diluted and used to construct a standard H2O2 curve at 560 nm in conjunction with the H2O2 calorimetric reagent. […]
Measurements of the absorbance at 560 nm (with appropriate subtraction of the background absorbance of the reagent at this wavelength) were made of samples taken at the various time points.

[2] = tested on: MES-SA human uterine cells; test: Proliferation of BSO-treated MES-SA cells with Antimycins A and GdTex (MTT); format: cell-based; settings: BSO pre-treated cells, Antimycins A 0 to 20 μM, GdTex up to 100 μM, 20 h
Experimental: The proliferation of MES-SA human uterine cells grown in McCoys SA medium in the presence of the thiol depleting agent BSO, with varying concentrations of a mitochondrial inhibitor (Antimycins A) and GdTex was used to assess the combined effect of these agents.
Materials and Methods. MES-SA cells were incubated at 37° C. and allowed to adhere to 96-well microtiter plates (2000 cells per well) overnight in 180 μL McCoys 5A containing 10% FBS (Gibco-BRL) and ca. 2% penicillin/streptomycin solution (Sigma). BSO (20 μL) was added to all wells followed by incubation for a further 24 h. The medium was exchanged and Antimycins A was serially diluted at concentrations ranging from 0 to 20 μM and after 0.5 hr metallotexaphyrin complex (up to 100 μM) was added to the test wells to give a final volume of 200 μL, followed by incubation for 20 h, whereupon the medium was exchanged and the plates were incubated an additional 52 h prior to analysis for viability using the MTT assay.

[3] = tested on: MES-SA cells; test: Radiation sensitization by clonogenic assay; format: cell-based, human
Experimental: The response of MES-SA cells to ionizing radiation was studied using a clonogenic assay format to confirm radiation sensitization potential.
Materials and Methods. MES-SA cells (200 to 5,000 cells per dish) were plated in T-25 flasks in 8.5 mL McCoys 5A containing 10% FBS (Gibco-BRL) and ca. 2% penicillin/streptomycin solution (Sigma) and incubated at 37° C. overnight. Stock BSO, ascorbate, GdTex (or a control 5% mannitol) solutions were prepared and 0.5 mL of each added to each flask to give a final volume of 10 mL (final concentrations of BSO, ascorbate and GdTex were 100 μM, 5 μM and 50 μM, respectively) and the cells incubated for 24 hr, whereupon the flasks were irradiated using a 137Cs irradiator (Model 40 Gammacell, J. L. Shepherd & Assoc., San Fernando, Calif.) at a dose rate of 0.805 Gy/min. Medium was removed immediately after irradiation, the cells were washed with fresh medium (5.0 mL) followed by the addition of fresh medium (10 mL) and incubation for an additional 11 days. Colonies were fixed and stained with 1% crystal violet and then counted.

[4] = tested on: MES-SA human uterine cells; test: Proliferation of MES-SA cells with BSO and GdTex (MTT); format: cell-based
Experimental: The proliferation of MES-SA human uterine cells grown in McCoys 5A medium in the presence of a thiol depleting agent (BSO) or GdTex was used to assess the combined effect of these agents. The protocol outlined in the previous example was followed, with the following changes:
1. The serially diluted compound was 200 μM BSO (Sigma Chemical, St. Louis, Mo., catalogue no. G1404).
2. The cells were allowed to incubate in the presence of the two drugs for ca. 72 hours, prior to exchange of media and analysis using the colorimetric (MTT) assay, as described, e.g., in Example 5.

SMILES | H2O2 produced [1] | combined effect of GdTex and Antimycins A on cell growth [2] | radiation response, co-administration ([3]; 50 μM GdTex and 100 μM BSO co-administered, 24 h prior to irradiation) | effect on clonogenic survival as a function of radiation, single agent ([3]; 50 μM GdTex or 100 μM BSO for 24 h prior to irradiation, ascorbate-containing medium) | inhibitory effect of GdTex alone ([4]; absence of BSO, ca. 72 hours, McCoys 5A medium) | combined effect of GdTex and BSO on cell growth ([4]; increasing amounts of GdTex with BSO, data normalized for GdTex alone)
CC(=O)[O-].CC(=O)[O-].CCc1c(CC)c2cc3nc(cnc4cc(OCCOCCOCCOC)c(OCCOCCOCCOC)cc4ncc4nc(cc1[n-]2)C(CCCO)=C4C)C(C)=C3CCCO.O.[Lu+3] [LuTex, motexafin lutetium] | Approximately 40 μM |  |  |  |  | 
CC(=O)[O-].CC(=O)[O-].CCc1c(CC)c2cc3nc(cnc4cc(OCCOCCOCCOC)c(OCCOCCOCCOC)cc4ncc4nc(cc1[n-]2)C(CCCO)=C4C)C(C)=C3CCCO.O.[Gd+3] [GdTex, motexafin gadolinium] |  | increase in the cytotoxic dose response of the cells towards Antimycins A | radiation response significantly greater than the sum of the responses obtained from them individually | relatively small effect on clonogenic survival | ca. 50% | increase in the cytotoxic dose response of the cells towards BSO
